From paper PMC10041525, “New Dual Inhibitors of Bacterial Topoisomerases with Broad-Spectrum Antibacterial Activity and In Vivo Efficacy against Vancomycin-Intermediate Staphylococcus aureus” (Journal of Medicinal Chemistry, 2023)
Values after ≈ are worked out from the molar mass of the structure shown. Where two headings read alike, the source gives them in different places.

What was measured:
Assay type in all cases: cell-based
[1] = system: 100 A. baumannii strains (50 MDR, 50 non-MDR); assay: MIC broth microdilution at IHMA Europe, panel of 100 strains; conditions: Acinetobacter baumannii; for MIC50: read-out: MIC 50
[2] = system: P. aeruginosa ATCC 27853; assay: IHMA QC MIC; conditions: Pseudomonas aeruginosa, ATCC27853; read-out: MIC (QC, repeated tests)
[3] = system: A. baumannii ATCC 17978; assay: IHMA QC MIC; conditions: Acinetobacter baumannii, ATCC17978; read-out: MIC (QC, repeated tests)
Description: (§1) The panel of Hungarian clinical isolates and controls measured following the same method as detailed above, and albeit measurements were carried out in 384-well microtiter plates (Corning Inc.).

[4] = system: E. coli ATCC 35218; assay: IHMA QC MIC; conditions: Escherichia coli, ATCC35218; read-out: MIC (QC, repeated tests)
Description: as §1

[5] = system: E. coli ATCC 25922; assay: IHMA QC MIC; conditions: Escherichia coli, ATCC25922; read-out: MIC (QC, repeated tests)

MIC ([1]; A. baumannii IHMA 1769393, Lithuania 2018, Non-MDR, read-out: MIC): ≤ 0.5 µg/mL | MIC ([1]; A. baumannii IHMA 1769782, Israel 2018, MDR, read-out: MIC): 8 µg/mL (≈ 19.9 µM) | MIC ([1]; A. baumannii IHMA 1769910, Israel 2018, Non-MDR, read-out: MIC): ≤ 0.5 µg/mL | MIC ([1]; A. baumannii IHMA 1790317, Czech Republic 2018, Non-MDR, read-out: MIC): ≤ 0.5 µg/mL | MIC ([1]; A. baumannii IHMA 1790916, Romania 2018, Non-MDR, read-out: MIC): ≤ 0.5 µg/mL | MIC ([1]; A. baumannii IHMA 1791877, Israel 2018, MDR, read-out: MIC): 8 µg/mL (≈ 19.9 µM) | MIC ([1]; A. baumannii IHMA 1792961, Jordan 2018, MDR, read-out: MIC): 8 µg/mL (≈ 19.9 µM) | MIC ([1]; A. baumannii IHMA 1795669, Tunisia 2018, Non-MDR, read-out: MIC): ≤ 0.5 µg/mL | MIC ([1]; A. baumannii IHMA 1815856, Israel 2018, MDR, read-out: MIC): 8 µg/mL (≈ 19.9 µM) | MIC ([1]; A. baumannii IHMA 1821468, South Africa 2018, Non-MDR, read-out: MIC): ≤ 0.5 µg/mL | MIC ([1]; A. baumannii IHMA 1829500, Georgia 2018, Non-MDR, read-out: MIC): ≤ 0.5 µg/mL | MIC ([1]; A. baumannii IHMA 1830924, United Kingdom 2018, Non-MDR, read-out: MIC): ≤ 0.5 µg/mL | MIC ([1]; A. baumannii IHMA 1849829, Kuwait 2018, Non-MDR, read-out: MIC): ≤ 0.5 µg/mL | MIC ([1]; A. baumannii IHMA 1857118, Slovenia 2018, Non-MDR, read-out: MIC): ≤ 0.5 µg/mL | MIC ([1]; A. baumannii IHMA 1863631, France 2018, Non-MDR, read-out: MIC): ≤ 0.5 µg/mL | MIC ([1]; A. baumannii IHMA 1870054, United States 2018, Non-MDR, read-out: MIC): ≤ 0.5 µg/mL | MIC ([1]; A. baumannii IHMA 1884428, Italy 2018, Non-MDR, read-out: MIC): ≤ 0.5 µg/mL | MIC ([1]; A. baumannii IHMA 1884990, Germany 2018, Non-MDR, read-out: MIC): ≤ 0.5 µg/mL | MIC ([1]; A. baumannii IHMA 1900538, Turkey 2018, Non-MDR, read-out: MIC): ≤ 0.5 µg/mL | MIC ([1]; A. baumannii IHMA 1913773, Kenya 2018, Non-MDR, read-out: MIC): ≤ 0.5 µg/mL | MIC ([1]; A. baumannii IHMA 1926285, Qatar 2018, Non-MDR, read-out: MIC): ≤ 0.5 µg/mL | MIC ([1]; A. baumannii IHMA 1957343, Portugal 2019, Non-MDR, read-out: MIC): ≤ 0.5 µg/mL | MIC ([1]; A. baumannii IHMA 1967860, Spain 2019, Non-MDR, read-out: MIC): ≤ 0.5 µg/mL | MIC ([1]; A. baumannii IHMA 1975075, Israel 2019, Non-MDR, read-out: MIC): ≤ 0.5 µg/mL | MIC ([1]; A. baumannii IHMA 1977077, Kuwait 2019, Non-MDR, read-out: MIC): ≤ 0.5 µg/mL | MIC ([1]; A. baumannii IHMA 1983151, Greece 2019, MDR, read-out: MIC): 8 µg/mL (≈ 19.9 µM) | MIC ([1]; A. baumannii IHMA 1986678, Turkey 2019, Non-MDR, read-out: MIC): ≤ 0.5 µg/mL | MIC ([1]; A. baumannii IHMA 1987162, Croatia 2019, MDR, read-out: MIC): 8 µg/mL (≈ 19.9 µM) | MIC ([1]; A. baumannii IHMA 1993615, Turkey 2019, MDR, read-out: MIC): 8 µg/mL (≈ 19.9 µM) | MIC ([1]; A. baumannii IHMA 1995161, Czech Republic 2019, Non-MDR, read-out: MIC): ≤ 0.5 µg/mL | MIC ([1]; A. baumannii IHMA 1997936, Morocco 2019, Non-MDR, read-out: MIC): ≤ 0.5 µg/mL | MIC ([1]; A. baumannii IHMA 1999178, Belgium 2019, Non-MDR, read-out: MIC): ≤ 0.5 µg/mL | MIC ([1]; A. baumannii IHMA 2014367, Jordan 2019, Non-MDR, read-out: MIC): ≤ 0.5 µg/mL | MIC ([1]; A. baumannii IHMA 2014931, South Africa 2019, Non-MDR, read-out: MIC): ≤ 0.5 µg/mL | MIC ([1]; A. baumannii IHMA 2019315, Romania 2019, Non-MDR, read-out: MIC): ≤ 0.5 µg/mL | MIC ([1]; A. baumannii IHMA 2031511, Greece 2019, Non-MDR, read-out: MIC): ≤ 0.5 µg/mL | MIC ([1]; A. baumannii IHMA 2031524, Greece 2019, MDR, read-out: MIC): 4 µg/mL (≈ 9.96 µM) | MIC ([1]; A. baumannii IHMA 2034657, Tunisia 2019, Non-MDR, read-out: MIC): ≤ 0.5 µg/mL | MIC ([1]; A. baumannii IHMA 2035134, Serbia 2019, Non-MDR, read-out: MIC): ≤ 0.5 µg/mL | MIC ([1]; A. baumannii IHMA 2038976, Hungary 2019, MDR, read-out: MIC): 8 µg/mL (≈ 19.9 µM) | MIC ([1]; A. baumannii IHMA 2058329, Slovenia 2019, Non-MDR, read-out: MIC): ≤ 0.5 µg/mL | MIC ([1]; A. baumannii IHMA 2065587, France 2019, Non-MDR, read-out: MIC): ≤ 0.5 µg/mL | MIC ([1]; A. baumannii IHMA 2099294, United Kingdom 2019, Non-MDR, read-out: MIC): ≤ 0.5 µg/mL | MIC ([1]; A. baumannii IHMA 2129256, Qatar 2019, Non-MDR, read-out: MIC): ≤ 0.5 µg/mL | MIC ([1]; A. baumannii IHMA 2157614, Australia 2020, Non-MDR, read-out: MIC): ≤ 0.5 µg/mL | MIC ([1]; A. baumannii IHMA 2178574, Ukraine 2020, Non-MDR, read-out: MIC): ≤ 0.5 µg/mL | MIC ([1]; A. baumannii IHMA 2180134, Malaysia 2020, Non-MDR, read-out: MIC): ≤ 0.5 µg/mL | MIC ([1]; A. baumannii IHMA 2180142, Malaysia 2020, MDR, read-out: MIC): 8 µg/mL (≈ 19.9 µM) | MIC ([1]; A. baumannii IHMA 2181370, Morocco 2020, MDR, read-out: MIC): 8 µg/mL (≈ 19.9 µM) | MIC ([1]; A. baumannii IHMA 2183729, Argentina 2020, MDR, read-out: MIC): 4 µg/mL (≈ 9.96 µM) | MIC ([1]; A. baumannii IHMA 2183849, Argentina 2020, Non-MDR, read-out: MIC): ≤ 0.5 µg/mL | MIC ([1]; A. baumannii IHMA 2184382, Japan 2020, Non-MDR, read-out: MIC): ≤ 0.5 µg/mL | MIC ([1]; A. baumannii IHMA 2193375, Venezuela 2020, MDR, read-out: MIC): 8 µg/mL (≈ 19.9 µM) | MIC ([1]; A. baumannii IHMA 2193485, Venezuela 2020, Non-MDR, read-out: MIC): ≤ 0.5 µg/mL | MIC ([1]; A. baumannii IHMA 2193607, Venezuela 2020, MDR, read-out: MIC): 4 µg/mL (≈ 9.96 µM) | MIC ([1]; A. baumannii IHMA 2195460, Italy 2020, MDR, read-out: MIC): 8 µg/mL (≈ 19.9 µM) | MIC ([1]; A. baumannii IHMA 2196959, South Africa 2020, MDR, read-out: MIC): 8 µg/mL (≈ 19.9 µM) | MIC ([1]; A. baumannii IHMA 2206507, Taiwan 2020, Non-MDR, read-out: MIC): ≤ 0.5 µg/mL | MIC ([1]; A. baumannii IHMA 2212575, Hungary 2020, Non-MDR, read-out: MIC): ≤ 0.5 µg/mL | MIC ([1]; A. baumannii IHMA 2215307, Hong Kong 2020, Non-MDR, read-out: MIC): ≤ 0.5 µg/mL | MIC ([1]; A. baumannii IHMA 2216586, Taiwan 2020, MDR, read-out: MIC): 8 µg/mL (≈ 19.9 µM) | MIC ([1]; A. baumannii IHMA 2223200, Colombia 2020, Non-MDR, read-out: MIC): ≤ 0.5 µg/mL | MIC ([1]; A. baumannii IHMA 2224303, Panama 2020, Non-MDR, read-out: MIC): ≤ 0.5 µg/mL | MIC ([1]; A. baumannii IHMA 2233099, Guatemala 2020, MDR, read-out: MIC): 8 µg/mL (≈ 19.9 µM) | MIC ([1]; A. baumannii IHMA 2233548, Kazakhstan 2020, Non-MDR, read-out: MIC): ≤ 0.5 µg/mL | MIC ([1]; A. baumannii IHMA 2238964, Thailand 2020, MDR, read-out: MIC): 8 µg/mL (≈ 19.9 µM) | MIC ([1]; A. baumannii IHMA 2239052, Thailand 2020, Non-MDR, read-out: MIC): ≤ 0.5 µg/mL | MIC ([1]; A. baumannii IHMA 2261047, Belgium 2020, MDR, read-out: MIC): 8 µg/mL (≈ 19.9 µM) | MIC ([1]; A. baumannii IHMA 2261633, Canada 2020, Non-MDR, read-out: MIC): ≤ 0.5 µg/mL | MIC ([1]; A. baumannii IHMA 2274234, South Africa 2020, MDR, read-out: MIC): 8 µg/mL (≈ 19.9 µM) | MIC ([1]; A. baumannii IHMA 2275237, Chile 2020, Non-MDR, read-out: MIC): ≤ 0.5 µg/mL | MIC ([1]; MDR n = 50, read-out: MIN (minimum MIC)): 4 µg/mL (≈ 9.96 µM) | MIC50 ([1]; all isolates n = 100): ≤ 0.5 µg/mL | MIC ([1]; all isolates n = 100, read-out: MIN (minimum MIC)): ≤ 0.5 µg/mL | MIC ([1]; non-MDR n = 50, read-out: MAX (maximum MIC)): ≤ 0.5 µg/mL | MIC50 ([1]; non-MDR n = 50): ≤ 0.5 µg/mL | MIC90 ([1]; non-MDR n = 50, read-out: MIC 90): ≤ 0.5 µg/mL | MIC ([1]; non-MDR n = 50, read-out: MIN (minimum MIC)): ≤ 0.5 µg/mL | MIC [2]: 2 µg/mL (≈ 4.98 µM) | MIC [3]: ≤ 0.5 µg/mL | MIC [4]: ≤ 0.5 µg/mL | MIC [5]: ≤ 0.5 µg/mL
Structure (SMILES): COc1c(N2C[C@@H]3CCCN[C@@H]3C2)c(F)cc2c(=O)c(C(=O)O)cn(C3CC3)c12 [Moxifloxacin, moxifloxacin]
